This is an account of results in ChEMBL document CHEMBL1138164, “Synthesis and structure-activity relationships of novel pyrrolocarbazole lactam analogs as potent and cell-permeable inhibitors of poly(ADP-ribose)polymerase-1 (PARP-1)” (Bioorg Med Chem Lett, 2006).

The subject of data set [1] is PC-12. Description: Potency in PC12 cells assessed by recovery of NAD+ at 1 uM. In kind it is functional, Rattus norvegicus.
Data set [2] relates to PC-12. In words: Efficacy in PC12 cells assessed by recovery of NAD+ at 30 uM. It is filed as functional, Rattus norvegicus.
Data set [3] deals with PC-12. Description: Potency in PC12 cells assessed by recovery of NAD+ at 10 uM. In kind it is functional, Rattus norvegicus.
Data set [4] is described as follows: Aqueous solubility of compound. In kind it is physicochemical. The settings on record: water (aqueous).

Converted amounts (≈) assume the structure as drawn.

As to `Cc1ccc2[nH]c3c4c(c5c(c3c2c1)CNC5=O)CCC4`, the Activity in the data set with PC-12 [1] is recorded as 17%. In the data set on PC-12 [2], this compound came in with an Efficacy of 50%.
By solubility is commonly meant the concentration that dissolves in the medium under given conditions. Low values mean little dissolved substance, high ones much dissolved substance. Consider `O=C1NCc2c1c1c(c3[nH]c4ccccc4c23)CCC1`, for which the figures for the Activity with PC-12 [1] and with PC-12 [3] were 48% and 68%, respectively. Also, the solubility in data set [4] is below 1 µg/mL.
Turning to `CN(Cc1ccccn1)C(=O)c1ccc2[nH]c3c4c(c5c(c3c2c1)CNC5=O)CCC4`, the Activity with PC-12 [1] was found to be 11%. In the data set with PC-12 [2], this compound showed an Efficacy of 44%.
`CN(Cc1ccncc1)C(=O)c1ccc2[nH]c3c4c(c5c(c3c2c1)CNC5=O)CCC4` gave an Activity in the data set with PC-12 [1] of 23%. The compound also came in with an Efficacy with PC-12 [2] of 101%.
`CN(CCc1c[nH]cn1)C(=O)c1ccc2[nH]c3c4c(c5c(c3c2c1)CNC5=O)CCC4` gave an Activity with PC-12 [1] of 5%. In the data set with PC-12 [2], this compound registered an Efficacy of 39%.
For `O=C1NCc2c1c1c(c3[nH]c4ccc(C(=O)N5CCOCC5)cc4c23)CCC1` the same measures were 18% and 74%.
In the data set with PC-12 [1], `CN(C)CCNC(=O)c1ccc2[nH]c3c4c(c5c(c3c2c1)CNC5=O)CCC4` returned an Activity of 6%. The compound further came in with an Efficacy in the data set with PC-12 [2] of 36%.
Turning to `NCc1ccc2[nH]c3c4c(c5c(c3c2c1)CNC5=O)CCC4`, in the data set on PC-12 [1], the Activity stood at 39%. Also, the Efficacy in the data set with PC-12 [2] was 102%. Further, in data set [4], the solubility was 100 µg/mL (≈ 343 µM).
In turn, `O=C(O)c1ccc2[nH]c3c4c(c5c(c3c2c1)CNC5=O)CCC4` returned an Activity in the data set on PC-12 [1] of 24%. The compound also yielded an Efficacy with PC-12 [2] of 65%.
For `O=C(NCCN1CCOCC1)c1ccc2[nH]c3c4c(c5c(c3c2c1)CNC5=O)CCC4` the same measures were 7% and 27%.
In the data set on PC-12 [1], `NCCCCC(N)C(=O)NCc1ccc2[nH]c3c4c(c5c(c3c2c1)CNC5=O)CCC4` (stereo not given) gave an Activity of 2%. In the data set on PC-12 [2], this compound showed an Efficacy of 48%.
For `O=C1NCc2c1c1c(c3[nH]c4ccc(Cl)cc4c23)CCC1` the same measures were 26% and 133%.
Regarding `O=C(NCCn1ccnn1)c1ccc2[nH]c3c4c(c5c(c3c2c1)CNC5=O)CCC4`, in the data set on PC-12 [1], the Activity was 12%. The compound further gave an Efficacy in the data set on PC-12 [2] of 28%.
In the data set with PC-12 [1], `COC(=O)c1ccc2[nH]c3c4c(c5c(c3c2c1)CNC5=O)CCC4` came in with an Activity of 38%. The same compound returned an Efficacy in the data set with PC-12 [2] of 134%.
For the compound `N#Cc1ccc2[nH]c3c4c(c5c(c3c2c1)CNC5=O)CCC4`, the Activity was determined as 26% in the data set on PC-12 [1] and 74% with PC-12 [3]. The compound further showed an Efficacy with PC-12 [2] of 122%.
For the compound `O=C1NCc2c1c1c(c3[nH]c4ccc(Br)cc4c23)CCC1`, the Activity came to 28% in the data set on PC-12 [1] and 47% in the data set on PC-12 [3].
